Assay results as given in US11492335B2, “Aryl or heteroaryl triazolone derivatives or salts thereof, or pharmaceutical compositions comprising the same” (YUHAN CORPORATION, priority 2018, dated 2022).
Structures can show the parent of a compound that is named as a salt.

Assays:
Assay type in all cases: biochemical
[1] = target: T1, recombinant human MAO-A (monoamine oxidase-A) (Homo sapiens, UniProt P21397); assay: Activity on recombinant human MAO-A, Amplex Red method, 0.5 mM tyramine substrate; details: 0.5 mM tyramine, read-out: Inhibitory Activity (IC50, nM) MAO-A
T1 construct: purchased Sigma-Aldrich
T1 sequence (P21397 1-527): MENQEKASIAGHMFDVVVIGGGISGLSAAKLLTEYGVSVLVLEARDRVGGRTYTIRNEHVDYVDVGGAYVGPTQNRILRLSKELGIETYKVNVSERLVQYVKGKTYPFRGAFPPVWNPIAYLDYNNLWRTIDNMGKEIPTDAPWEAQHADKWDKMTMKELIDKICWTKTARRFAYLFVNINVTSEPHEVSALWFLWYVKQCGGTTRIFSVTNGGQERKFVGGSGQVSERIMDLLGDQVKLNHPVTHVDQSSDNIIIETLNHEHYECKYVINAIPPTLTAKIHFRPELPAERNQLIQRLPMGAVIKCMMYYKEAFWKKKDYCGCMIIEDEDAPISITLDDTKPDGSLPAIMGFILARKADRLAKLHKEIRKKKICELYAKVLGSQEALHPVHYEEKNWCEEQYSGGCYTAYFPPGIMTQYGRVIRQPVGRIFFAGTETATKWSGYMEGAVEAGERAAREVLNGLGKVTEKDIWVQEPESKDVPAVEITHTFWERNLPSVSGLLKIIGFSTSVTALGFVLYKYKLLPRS
Procedure, shortened: (§1)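 HRP-coupled Amplex Red H2O2 assay, 50 mM sodium phosphate pH 7.4; compounds (8-point 1:3 series, final DMSO <1%) preincubated with enzyme 30 min at 37° C, then 200 uM Amplex Red, 1 U/mL HRP and substrate (MAO-A 0.5 mM tyramine; MAO-B 1 mM benzylamine) added. Resorufin fluorescence (ex 544/em 590 nm) read over 1-2 h; IC50 from four-parameter logistic fit.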

[2] = target: T2, recombinant human VAP-1 (Homo sapiens, UniProt Q16853); assay: Activity on recombinant human VAP-1, Amplex Red HRP-coupled hydrogen peroxide assay, benzylamine substrate; details: recombinant human VAP-1, benzylamine substrate, 30 min preincubation at 37° C.; read-out: Inhibitory Activity (IC50, nM) human VAP-1
T2 construct: purchased R&D systems
T2 sequence (Q16853 1-763): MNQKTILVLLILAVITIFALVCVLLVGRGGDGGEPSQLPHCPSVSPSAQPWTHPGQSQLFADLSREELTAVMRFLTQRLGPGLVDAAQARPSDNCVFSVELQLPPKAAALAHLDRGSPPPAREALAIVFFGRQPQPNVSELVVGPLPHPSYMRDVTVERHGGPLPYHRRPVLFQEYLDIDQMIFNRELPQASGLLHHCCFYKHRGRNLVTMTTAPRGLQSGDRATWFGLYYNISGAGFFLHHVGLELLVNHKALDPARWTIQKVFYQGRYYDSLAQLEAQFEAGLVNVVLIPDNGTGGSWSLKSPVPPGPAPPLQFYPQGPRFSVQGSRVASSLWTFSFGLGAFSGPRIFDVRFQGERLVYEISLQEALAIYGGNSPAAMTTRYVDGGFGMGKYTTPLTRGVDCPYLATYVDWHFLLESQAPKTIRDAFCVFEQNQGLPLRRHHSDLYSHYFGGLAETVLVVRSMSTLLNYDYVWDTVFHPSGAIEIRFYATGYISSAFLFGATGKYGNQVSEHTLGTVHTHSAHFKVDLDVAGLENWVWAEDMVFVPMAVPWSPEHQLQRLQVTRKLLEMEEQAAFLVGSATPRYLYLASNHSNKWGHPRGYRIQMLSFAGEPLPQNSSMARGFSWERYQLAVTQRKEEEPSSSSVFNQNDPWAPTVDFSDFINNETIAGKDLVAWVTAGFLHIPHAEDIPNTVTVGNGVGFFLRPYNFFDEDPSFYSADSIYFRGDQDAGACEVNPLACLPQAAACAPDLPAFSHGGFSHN
Procedure, shortened: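 8-point 1:3 dilutions, final DMSO <1%; 30 min enzyme preincubation, 37 °C, pH 7.4 phosphate. Start: 1 mM benzylamine + 200 uM Amplex Red + 1 U/mL HRP. Read ex544/em590 over 1-2 h; % rate decrease vs DMSO control, 4-parameter logistic IC50.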

[3] = target: T3, recombinant human DAO (diamine oxidase) (Homo sapiens, UniProt P19801); assay: Activity on recombinant human DAO, Amplex Red method, 1 mM putrescine substrate; details: recombinant human DAO, 1 mM putrescine; * = between 10 and 100 nM, ** = between 300 and 1000 nM; read-out: Inhibitory Activity (IC50, nM) DAO
T3 construct: purchased R&D systems
T3 sequence (P19801 20-751): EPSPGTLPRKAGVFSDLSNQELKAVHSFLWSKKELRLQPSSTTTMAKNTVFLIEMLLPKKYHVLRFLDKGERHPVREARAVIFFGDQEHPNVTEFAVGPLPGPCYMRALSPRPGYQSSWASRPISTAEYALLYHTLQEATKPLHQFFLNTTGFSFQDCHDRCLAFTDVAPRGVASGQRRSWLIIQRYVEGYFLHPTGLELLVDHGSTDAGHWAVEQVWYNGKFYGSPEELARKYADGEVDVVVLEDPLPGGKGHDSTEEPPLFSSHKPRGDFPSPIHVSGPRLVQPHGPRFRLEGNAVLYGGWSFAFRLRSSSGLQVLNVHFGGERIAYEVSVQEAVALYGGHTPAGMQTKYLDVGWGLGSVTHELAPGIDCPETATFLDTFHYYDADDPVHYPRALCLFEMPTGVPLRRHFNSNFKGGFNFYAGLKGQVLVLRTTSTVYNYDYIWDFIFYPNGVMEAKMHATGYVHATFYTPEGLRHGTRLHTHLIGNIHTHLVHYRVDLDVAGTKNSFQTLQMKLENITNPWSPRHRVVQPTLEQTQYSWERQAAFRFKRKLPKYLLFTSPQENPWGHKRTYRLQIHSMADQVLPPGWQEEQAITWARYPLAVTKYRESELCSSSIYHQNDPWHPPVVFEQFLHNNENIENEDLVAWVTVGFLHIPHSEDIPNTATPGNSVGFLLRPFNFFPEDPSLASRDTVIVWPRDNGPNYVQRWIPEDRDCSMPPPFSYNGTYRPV
Procedure, shortened: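 Inhibition of recombinant human DAO (diamine oxidase, R&D systems) was assessed with the Amplex Red Hydrogen Peroxide Assay Kit. Hydrogen peroxide produced from 1 mM putrescine was detected through an HRP-coupled reaction that converts Amplex Red into fluorescent resorufin, read at 544 nm excitation and 590 nm emission. IC50 values came from four-parameter logistic fits in GraphPad Prism.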

[4] = target: T4, recombinant human MAO-B (monoamine oxidase-B) (Homo sapiens, UniProt P27338); assay: Activity on recombinant human MAO-B, Amplex Red method, 1 mM benzylamine substrate; details: 1 mM benzylamine, read-out: Inhibitory Activity (IC50, nM) MAO-B
T4 construct: purchased Sigma-Aldrich
T4 sequence (P27338 1-520): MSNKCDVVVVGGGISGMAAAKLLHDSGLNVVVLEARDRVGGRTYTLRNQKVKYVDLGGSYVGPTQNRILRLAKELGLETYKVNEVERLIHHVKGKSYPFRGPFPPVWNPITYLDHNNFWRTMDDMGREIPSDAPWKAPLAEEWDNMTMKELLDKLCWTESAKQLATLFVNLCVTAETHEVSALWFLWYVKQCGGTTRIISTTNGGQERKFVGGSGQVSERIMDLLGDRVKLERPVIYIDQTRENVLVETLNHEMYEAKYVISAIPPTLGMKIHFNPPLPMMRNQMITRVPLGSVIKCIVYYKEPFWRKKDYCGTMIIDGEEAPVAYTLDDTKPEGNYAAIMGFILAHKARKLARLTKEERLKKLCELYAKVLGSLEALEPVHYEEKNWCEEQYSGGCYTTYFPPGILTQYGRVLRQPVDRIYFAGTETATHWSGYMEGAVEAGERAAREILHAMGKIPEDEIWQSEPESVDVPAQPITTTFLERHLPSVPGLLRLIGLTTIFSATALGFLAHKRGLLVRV
Procedure, shortened: as §1

IC50 [1] [nM] | IC50 [2] [nM] | IC50 [3] [nM] | IC50 [4] [nM] | Structure (SMILES)
> 100000 | 0.93 | < 30 | > 10000 | CC(C)c1nc(-c2cccc(-c3cccc(-n4cnn(C/C(=C/F)CN)c4=O)c3)c2)no1 [Example 65, 2-[(2E)-2-(aminomethyl)-3-fluoroprop-2-en-1-yl]-4-{3′-[5-(propan-2-yl)-1,2,4-oxadiazol-3-yl]biphenyl-3-yl}-2,4-dihydro-3H-1,2,4-triazol-3-one hydrochloride]
> 100000 | 0.66 | 3.9 | > 10000 | CS(=O)(=O)c1ccc(-c2ccc(-c3cccc(-n4cnn(C/C(=C/F)CN)c4=O)c3)cc2)cc1 [Example 66, 2-[(2E)-2-(aminomethyl)-3-fluoroprop-2-en-1-yl]-4-[4″-(methylsulfonyl)-1,1′:4′,1″-terphenyl-3-yl]-2,4-dihydro-3H-1,2,4-triazol-3-one hydrochloride]
> 100000 | 0.77 | 11 | > 10000 | CS(=O)(=O)c1ccc(-c2cccc(-c3cccc(-n4cnn(C/C(=C/F)CN)c4=O)c3)c2)cc1 [Example 67, 2-[(2E)-2-(aminomethyl)-3-fluoroprop-2-en-1-yl]-4-[4″-(methylsulfonyl)-1,1′:3′,1″-terphenyl-3-yl]-2,4-dihydro-3H-1,2,4-triazol-3-one]
37800 | 0.82 | 2.7 | > 10000 | CC(=O)Nc1ccc(-c2ccc(-c3cccc(-n4cnn(C/C(=C/F)CN)c4=O)c3)cc2)cc1 [Example 68, N-(3″-{1-[(2E)-2-(aminomethyl)-3-fluoroprop-2-en-1-yl]-5-oxo-1,5-dihydro-4H-1,2,4-triazol-4-yl}-1,1′:4′,1″-terphenyl-4-yl)acetamide hydrochloride]
4910 | 0.63 | 11 | 1100 | CC(=O)Nc1ccc(-c2cccc(-c3cccc(-n4cnn(C/C(=C/F)CN)c4=O)c3)c2)cc1 [Example 69, N-(3″-{1-[(2E)-2-(aminomethyl)-3-fluoroprop-2-en-1-yl]-5-oxo-1,5-dihydro-4H-1,2,4-triazol-4-yl}-1,1′:3′,1″-terphenyl-4-yl)acetamide hydrochloride]
> 100000 | 0.63 | < 30 | 1620 | NC/C(=C\F)Cn1ncn(-c2cccc(-c3ccc(-c4ccc5c(c4)OCO5)cc3)c2)c1=O [Example 70, 2-[(2E)-2-(aminomethyl)-3-fluoroprop-2-en-1-yl]-4-[4′-(1,3-benzodioxol-5-yl)biphenyl-3-yl]-2,4-dihydro-3H-1,2,4-triazol-3-one hydrochloride]
17300 | 1 | < 30 | 240 | NC/C(=C\F)Cn1ncn(-c2cccc(-c3cccc(-c4ccc5c(c4)OCO5)c3)c2)c1=O [Example 71, 2-[(2E)-2-(aminomethyl)-3-fluoroprop-2-en-1-yl]-4-[3′-(1,3-benzodioxol-5-yl)biphenyl-3-yl]-2,4-dihydro-3H-1,2,4-triazol-3-one hydrochloride]
4890 | 1.1 | 59 | 1460 | CC(=O)N1CCN(c2ccc(-c3cccc(-n4cnn(C/C(=C/F)CN)c4=O)c3)cc2)CC1 [Example 72, 4-[4′-(4-acetylpiperazine-1-yl)biphenyl-3-yl]-2-[(2E)-2-(aminomethyl)-3-fluoroprop-2-en-1-yl]-2,4-dihydro-3H-1,2,4-triazol-3-one hydrochloride]
> 100000 | 0.98 | 67 | > 10000 | NC/C(=C\F)Cn1ncn(-c2cccc(-c3ccc(C4CCOCC4)cc3)c2)c1=O [Example 73, 2-[(2E)-2-(aminomethyl)-3-fluoroprop-2-en-1-yl]-4-[4′-(tetrahydro-2H-pyran-4-yl)biphenyl-3-yl]-2,4-dihydro-3H-1,2,4-triazol-3-one hydrochloride]
> 100000 | 0.84 | 282 | > 10000 | NC/C(=C\F)Cn1ncn(-c2cccc(-c3ccc(N4CCOCC4)cc3)c2)c1=O [Example 74, 2-[(2E)-2-(aminomethyl)-3-fluoroprop-2-en-1-yl]-4-[4′-(morpholin-4-yl)biphenyl-3-yl]-2,4-dihydro-3H-1,2,4-triazol-3-one hydrochloride]
> 100000 | 0.93 | < 100 | > 10000 | NC/C(=C\F)Cn1ncn(-c2cccc(-c3ccc(N4CCOCC4)c(F)c3)c2)c1=O [Example 75, 2-[(2E)-2-(aminomethyl)-3-fluoroprop-2-en-1-yl]-4-[3′-fluoro-4′-(morpholin-4-yl)biphenyl-3-yl]-2,4-dihydro-3H-1,2,4-triazol-3-one hydrochloride]
> 100000 | 0.64 | < 100 | > 10000 | NC/C(=C\F)Cn1ncn(-c2cccc(-c3ccc(N4CCOCC4)c(Cl)c3)c2)c1=O [Example 76, 2-[(2E)-2-(aminomethyl)-3-fluoroprop-2-en-1-yl]-4-[3′-chloro-4′-(morpholin-4-yl)biphenyl-3-yl]-2,4-dihydro-3H-1,2,4-triazol-3-one hydrochloride]
